These results are taken from US8558002B2, “Sulfoximines as kinase inhibitors” (Allergan, Inc., priority 2006, dated 2013).

Molecules are shown by their SMILES. A value given as a limit tells only on which side of the number the result lay.

Assay [1] addresses T1, VEGFR2 (Homo sapiens, UniProt P35968). In words: VEGFR2 Kinase Assay (biochemical KDR kinase, poly-Glu-Tyr ELISA). As to conditions: purified cytoplasmic domain KDR protein, 2.7 μM ATP. Further details: 200-300 ng purified cytoplasmic domain KDR protein; purchased BPS Bioscience. As to the method:
Biochemical KDR kinase assays were performed in 96 well microtiter plates that were coated overnight with 75 μg/well of poly-Glu-Tyr (4:1) in 10 mM Phosphate Buffered Saline (PBS), pH 7.4. The coated plates were washed with 2 mls per well PBS+0.05% Tween-20 (PBS-T), blocked by incubation with PBS containing 1% BSA, then washed with 2 mls per well PBS-T prior to starting the reaction. Reactions were carried out in […] reaction volumes containing 2.7 μM ATP in kinase buffer (50 mM Hepes buffer pH 7.4, 20 mM MgCl2, 0.1 mM MnCl2 and 0.2 mM Na3VO4). Test compounds were reconstituted in 100% DMSO and added to the reaction to give a final DMSO concentration of 5%. Reactions were initiated by the addition 20 ul per well of kinase buffer containing 200-300 ng purified cytoplasmic domain KDR protein (BPS Bioscience, San Diego, Calif.). Following a 15 minute incubation at 30° C., the reactions were washed 2 mls per well PBS-T. 100 μl of a monoclonal anti-phosphotyrosine antibody-peroxidase conjugate diluted 1:10,000 in PBS-T was added to the wells for 30 minutes. Following a 2 mls per well wash with PBS-Tween-20, 100 μl of O-Phenylenediamine Dihydrochloride in phosphate-citrate buffer, containing urea hydrogen peroxide, was added to the wells for 7-10 minutes as a colorimetric substrate for the peroxidase. The reaction was terminated by the addition of 100 μl of 2.5NH2SO4 to each well and read using a microplate ELISA reader set at 492 nm. IC50 values for compound inhibition were calculated directly from graphs of optical density (arbitrary units) versus compound concentration following subtraction of blank values.
Target sequence in this assay (P35968 786-1356 limits assumed): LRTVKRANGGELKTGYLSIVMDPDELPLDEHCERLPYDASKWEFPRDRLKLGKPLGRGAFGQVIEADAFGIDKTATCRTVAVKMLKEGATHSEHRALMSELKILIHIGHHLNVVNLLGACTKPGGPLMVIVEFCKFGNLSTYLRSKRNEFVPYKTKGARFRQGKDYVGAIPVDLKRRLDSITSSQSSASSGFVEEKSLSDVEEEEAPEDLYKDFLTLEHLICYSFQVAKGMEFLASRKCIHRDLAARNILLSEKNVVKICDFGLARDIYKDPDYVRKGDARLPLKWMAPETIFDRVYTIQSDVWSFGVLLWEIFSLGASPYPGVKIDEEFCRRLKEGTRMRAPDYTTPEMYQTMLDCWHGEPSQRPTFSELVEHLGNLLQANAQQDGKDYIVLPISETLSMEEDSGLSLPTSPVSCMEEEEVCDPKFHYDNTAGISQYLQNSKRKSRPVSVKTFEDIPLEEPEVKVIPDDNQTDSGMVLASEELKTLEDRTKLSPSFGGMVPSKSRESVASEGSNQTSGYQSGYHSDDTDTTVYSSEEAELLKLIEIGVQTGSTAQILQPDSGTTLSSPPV
(In general: ELISA stands for enzyme-linked immunosorbent assay.)

Assay [2] deals with T1, VEGFR2. The assay is described as follows: VEGFR2 Cellular Assay (FLIPR, VEGF induced increases in intracellular calcium in HUVEC). It is filed as cell-based. Further details: host or cells: HUVEC. Conditions: VEGF165 stimulation (10 ng/mL), Fluo-4. As to the method:
Automated FLIPR (Fluorometric Imaging Plate Reader) technology was used to screen for inhibitors of VEGF induced increases in intracellular calcium levels in fluorescent dye loaded endothelial cells. HUVEC (human umbilical vein endothelial cells) (Clonetics) were seeded in 384-well fibronectin coated black-walled plates overnight @ 37° C./5% CO2. Cells were loaded with calcium indicator Fluo-4 for 45 minutes at 37° C. Cells were washed 2 times (El×405, Biotek Instruments) to remove extracellular dye. For screening, cells were pre-incubated with test agents for 30 minutes, at a single concentration (10 uM) or at concentrations ranging from 0.0001 to 10.0 uM followed by VEGF165 stimulation (10 ng/mL). Changes in fluorescence at 516 nm were measured simultaneously in all 384 wells using a cooled CCD camera. Data were generated by determining max-min fluorescence levels for unstimulated, stimulated, and drug treated samples. IC50 values for test compounds were calculated from % inhibition of VEGF stimulated responses in the absence of inhibitor.
Target sequence in this assay (P35968 20-1356): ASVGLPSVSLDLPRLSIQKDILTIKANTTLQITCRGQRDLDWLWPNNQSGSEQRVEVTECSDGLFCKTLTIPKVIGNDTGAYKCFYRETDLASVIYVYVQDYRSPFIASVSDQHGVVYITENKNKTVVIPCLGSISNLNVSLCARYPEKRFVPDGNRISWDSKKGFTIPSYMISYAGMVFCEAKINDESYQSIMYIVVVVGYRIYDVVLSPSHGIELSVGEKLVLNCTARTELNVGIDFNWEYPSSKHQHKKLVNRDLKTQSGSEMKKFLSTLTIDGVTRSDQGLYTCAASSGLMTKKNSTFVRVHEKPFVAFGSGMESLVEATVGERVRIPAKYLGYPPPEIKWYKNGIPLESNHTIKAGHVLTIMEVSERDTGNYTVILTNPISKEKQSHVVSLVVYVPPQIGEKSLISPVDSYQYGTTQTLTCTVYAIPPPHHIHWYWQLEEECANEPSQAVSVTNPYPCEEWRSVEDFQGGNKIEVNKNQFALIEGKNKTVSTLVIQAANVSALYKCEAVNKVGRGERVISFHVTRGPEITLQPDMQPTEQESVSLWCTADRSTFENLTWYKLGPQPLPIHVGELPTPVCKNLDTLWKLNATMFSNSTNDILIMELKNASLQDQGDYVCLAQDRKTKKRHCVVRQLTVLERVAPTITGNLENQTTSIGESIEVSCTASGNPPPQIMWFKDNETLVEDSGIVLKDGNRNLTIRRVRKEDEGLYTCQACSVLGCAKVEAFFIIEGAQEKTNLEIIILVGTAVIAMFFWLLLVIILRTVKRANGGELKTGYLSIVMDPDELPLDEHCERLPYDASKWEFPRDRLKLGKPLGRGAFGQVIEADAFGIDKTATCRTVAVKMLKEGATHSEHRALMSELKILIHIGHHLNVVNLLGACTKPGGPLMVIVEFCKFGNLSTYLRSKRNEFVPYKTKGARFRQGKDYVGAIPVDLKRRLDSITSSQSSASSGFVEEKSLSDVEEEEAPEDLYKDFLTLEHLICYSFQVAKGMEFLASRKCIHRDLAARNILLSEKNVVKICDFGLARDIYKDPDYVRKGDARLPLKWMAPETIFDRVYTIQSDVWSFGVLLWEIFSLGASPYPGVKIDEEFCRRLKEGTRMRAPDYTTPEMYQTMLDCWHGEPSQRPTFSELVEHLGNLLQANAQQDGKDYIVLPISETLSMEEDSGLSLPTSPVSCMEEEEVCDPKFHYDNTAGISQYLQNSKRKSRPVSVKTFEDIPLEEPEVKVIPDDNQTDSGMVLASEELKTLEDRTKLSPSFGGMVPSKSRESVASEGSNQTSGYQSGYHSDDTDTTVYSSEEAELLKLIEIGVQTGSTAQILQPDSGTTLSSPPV
For orientation: Calcium flux is commonly read through the fluorescence of an indicator in the cells.

The next assay addresses T2, PDGFRβ (Homo sapiens, UniProt P09619).
T2 construct: 200-300 ng purified cytoplasmic domain PDGFR-b protein (Millipore); purchased Millipore
The assay is described as follows: PDGFRβ Kinase Assay (poly-Glu-Tyr ELISA). Conditions: purified cytoplasmic domain PDGFR-b protein, 36 μM ATP. It is filed as biochemical. As to the method: Biochemical PDGFRβ kinase assays were performed in 96 well microtiter plates that were coated overnight with 75 μg of poly-Glu-Tyr (4:1) in 10 mM Phosphate Buffered Saline (PBS), pH 7.4. The coated plates were washed with 2 mls per well PBS+0.05% Tween-20 (PBS-T), blocked by incubation with PBS containing 1% BSA, then washed with 2 mls per well PBS-T prior to starting the reaction. Reactions were carried out in 100 μL reaction volumes containing 36 μM ATP in kinase buffer (50 mM Hepes buffer pH 7.4, 20 mM MgCl2, 0.1 mM MnCl2 and 0.2 mM Na3VO4). Test compounds were reconstituted in 100% DMSO and added to the reaction to give a final DMSO concentration of 5%. Reactions were initiated by the addition 20 ul per well of kinase buffer containing 200-300 ng purified cytoplasmic domain PDGFR-b protein (Millipore). Following a 60 minute incubation at 30° C., the reactions were washed 2 mls per well PBS-T. […] of a monoclonal anti-phosphotyrosine antibody-peroxidase conjugate diluted 1:10,000 in PBS-T was added to the wells for 30 minutes. Following a 2 mls per well wash with PBS-Tween-20, 100 μl of O-Phenylenediamine Dihydrochloride in phosphate-citrate buffer, containing urea hydrogen peroxide, was added to the wells for 7-10 minutes as a colorimetric substrate for the peroxidase. The reaction was terminated by the addition of 100 μl of 2.5N H2SO4 to each well and read using a microplate ELISA reader set at 492 nm. IC50 values for compound inhibition were calculated directly from graphs of optical density (arbitrary units) versus compound concentration following subtraction of blank values.

A further assay concerns the target VEGFR1 (Homo sapiens, UniProt P17948). In words: VEGFR1 Kinase. The format is biochemical.

T2 sequence (P09619 554-1106 limits assumed): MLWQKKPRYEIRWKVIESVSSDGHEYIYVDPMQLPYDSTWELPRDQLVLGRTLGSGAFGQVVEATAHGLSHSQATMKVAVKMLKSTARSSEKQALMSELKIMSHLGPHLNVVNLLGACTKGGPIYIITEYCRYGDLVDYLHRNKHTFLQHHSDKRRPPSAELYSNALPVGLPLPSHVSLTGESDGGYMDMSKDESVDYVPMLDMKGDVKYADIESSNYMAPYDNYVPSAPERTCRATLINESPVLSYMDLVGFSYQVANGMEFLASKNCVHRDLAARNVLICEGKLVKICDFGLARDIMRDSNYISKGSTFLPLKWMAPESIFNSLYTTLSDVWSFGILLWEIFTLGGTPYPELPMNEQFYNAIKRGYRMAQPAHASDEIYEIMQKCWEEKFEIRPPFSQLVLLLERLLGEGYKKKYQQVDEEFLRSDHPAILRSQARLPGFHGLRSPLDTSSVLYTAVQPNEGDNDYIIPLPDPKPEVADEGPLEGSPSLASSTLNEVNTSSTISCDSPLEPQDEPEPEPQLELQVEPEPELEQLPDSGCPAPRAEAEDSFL
VEGFR1, sequence (P17948 27-1338, species assumed): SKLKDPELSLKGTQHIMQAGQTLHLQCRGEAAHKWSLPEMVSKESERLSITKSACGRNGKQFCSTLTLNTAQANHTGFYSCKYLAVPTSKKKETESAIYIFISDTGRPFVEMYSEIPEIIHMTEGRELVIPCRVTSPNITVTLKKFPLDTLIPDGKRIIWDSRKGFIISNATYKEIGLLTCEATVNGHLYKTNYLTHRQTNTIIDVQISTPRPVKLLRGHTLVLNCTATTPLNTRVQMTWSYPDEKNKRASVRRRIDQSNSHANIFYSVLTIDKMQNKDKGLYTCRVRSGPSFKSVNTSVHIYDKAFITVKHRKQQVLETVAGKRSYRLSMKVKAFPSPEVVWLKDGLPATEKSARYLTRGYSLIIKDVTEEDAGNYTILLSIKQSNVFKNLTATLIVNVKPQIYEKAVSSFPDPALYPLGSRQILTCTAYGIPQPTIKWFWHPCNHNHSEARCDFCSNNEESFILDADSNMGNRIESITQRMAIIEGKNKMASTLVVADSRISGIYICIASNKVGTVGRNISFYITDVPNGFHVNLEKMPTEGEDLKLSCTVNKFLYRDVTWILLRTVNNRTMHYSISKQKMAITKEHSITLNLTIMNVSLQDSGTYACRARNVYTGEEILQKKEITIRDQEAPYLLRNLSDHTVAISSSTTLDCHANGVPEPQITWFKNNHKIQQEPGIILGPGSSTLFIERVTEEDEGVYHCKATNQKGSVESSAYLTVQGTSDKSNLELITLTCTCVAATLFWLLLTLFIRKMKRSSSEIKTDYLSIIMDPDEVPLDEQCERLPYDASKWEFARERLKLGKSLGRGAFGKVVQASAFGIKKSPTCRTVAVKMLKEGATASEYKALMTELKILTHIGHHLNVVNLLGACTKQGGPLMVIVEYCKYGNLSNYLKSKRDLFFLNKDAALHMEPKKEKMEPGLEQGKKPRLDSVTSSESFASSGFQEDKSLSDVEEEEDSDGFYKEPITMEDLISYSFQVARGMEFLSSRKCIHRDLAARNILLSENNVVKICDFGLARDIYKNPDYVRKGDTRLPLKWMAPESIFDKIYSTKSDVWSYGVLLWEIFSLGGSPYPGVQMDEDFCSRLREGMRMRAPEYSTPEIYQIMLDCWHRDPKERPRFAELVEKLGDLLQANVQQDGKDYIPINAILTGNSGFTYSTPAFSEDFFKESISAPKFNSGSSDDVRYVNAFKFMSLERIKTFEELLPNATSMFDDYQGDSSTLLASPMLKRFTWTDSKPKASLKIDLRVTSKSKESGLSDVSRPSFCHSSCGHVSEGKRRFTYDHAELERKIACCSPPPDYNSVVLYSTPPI

Broadly, the IC50 is the concentration that gives 50% inhibition. `COC(=O)CCCCS(=O)(CCCCC(=O)OC)=NC(=O)c1cnc(N)c(C#Cc2ccc(NC(=O)Nc3cc(C)ccc3F)cc2)c1` [Example 19, Dimethyl 5,5′-{N-[(6-amino-5-{[4-({[(2-fluoro-5-methylphenyl)amino]carbonyl}amino)phenyl]ethynyl}pyridin-3-yl)carbonyl]sulfonimidoyl}dipentanoate]: the IC50 on VEGFR2 [1] was determined as 13 nM; at VEGFR2 [2], 5 nM; on PDGFRβ, 20 nM; on VEGFR1, 23 nM.
Take `COC(=O)CCCCS(=O)(CCCCC(=O)OC)=NC(=O)c1cnc(N)c(C#Cc2cccc(C(=O)Nc3cccc(C)c3)c2)c1` [Example 12, Dimethyl 5,5′-[N-({6-amino-5-[(3-{[(3-methylphenyl)amino]carbonyl}phenyl)ethynyl]pyridin-3-yl}carbonyl)sulfonimidoyl]dipentanoate]: the half-inhibitory concentration (IC50) against VEGFR2 [1] amounted to 8 nM; on VEGFR2 [2] it was 1 nM; against PDGFRβ it was 57 nM.
Regarding `COC(=O)CCCCS(=O)(CCCCC(=O)OC)=NC(=O)c1cnc(N)c(C#Cc2cccc(NC(=O)Nc3cc(C)ccc3F)c2)c1` [Example 18, Dimethyl 5,5′-{N-[(6-amino-5-{[3-({[(2-fluoro-5-methylphenyl)amino]carbonyl}amino)phenyl]ethynyl}pyridin-3-yl)carbonyl]sulfonimidoyl}dipentanoate], the concentration for half-maximal inhibition (IC50) was determined as 10 nM against VEGFR2 [1] and 23 nM on VEGFR2 [2].
With `COC(=O)CCCCS(=O)(CCCCC(=O)OC)=NC(=O)c1cnc(N)c(C#Cc2cccc(NC(=O)c3cccc(Cl)c3)c2)c1` [Example 6], the IC50 was determined as 11 nM against VEGFR2 [1], 1 nM on VEGFR2 [2] and 21 nM against PDGFRβ.
Consider `COC(=O)CCCCS(=O)(CCCCC(=O)OC)=NC(=O)c1cnc(N)c(C#Cc2cccc(NC(=O)c3cc(C(F)(F)F)ccc3F)c2)c1` [Example 10, Dimethyl 5,5′-[N-({6-amino-5-[(3-{[2-fluoro-5-(trifluoromethyl)benzoyl]amino}phenyl)ethynyl]pyridin-3-yl}carbonyl)sulfonimidoyl]dipentanoate], for which the IC50 against VEGFR2 [1] was determined as 20 nM; at VEGFR2 [2], 6 nM; at PDGFRβ, 69 nM.
For the compound `COC(=O)CCCCS(=O)(CCCCC(=O)OC)=NC(=O)c1cnc(N)c(C#Cc2cccc(NC(=O)c3cccc([S+](C)[O-])c3)c2)c1` (stereo not shown) [Example 8, Dimethyl 5,5′-[N-({6-amino-5-[(3-{[3-(methylsulfinyl)benzoyl]amino}phenyl)ethynyl]pyridin-3-yl}carbonyl)sulfonimidoyl]dipentanoate], the IC50 is 12 nM against VEGFR2 [1] and 6 nM on VEGFR2 [2].
Turning to `COC(=O)CCCCS(=O)(CCCCC(=O)OC)=NC(=O)c1cnc(N)c(C#Cc2cccc(C(=O)Nc3ccc(Cl)c(C(F)(F)F)c3)c2)c1` [Example 17, Dimethyl 5,5′-{N-[(6-amino-5-{[3-({[4-chloro-3-(trifluoromethyl)phenyl]amino}carbonyl)phenyl]ethynyl}pyridin-3-yl)carbonyl]sulfonimidoyl}dipentanoate], the half-inhibitory concentration (IC50) came out at 37 nM against VEGFR2 [1], 36 nM against PDGFRβ and 32 nM at VEGFR1.
For the compound `COC(=O)CCCCS(=O)(CCCCC(=O)OC)=NC(=O)c1cnc(N)c(C#Cc2cccc(NC(=O)c3ccc(F)c(Cl)c3)c2)c1` [Example 4, Dimethyl 5,5′-(N-{[6-amino-5-({3-[(3-chloro-4-fluorobenzoyl)amino]phenyl}ethynyl)pyridin-3-yl]carbonyl}sulfonimidoyl)dipentanoate], the IC50 against VEGFR2 [1] stood at 8 nM; at VEGFR2 [2] it was 2 nM; at PDGFRβ, 34 nM.
Taken in the same sequence, the figures for `COC(=O)CCCCS(=O)(CCCCC(=O)OC)=NC(=O)c1cnc(N)c(C#Cc2cccc(NC(=O)c3cccc(C)c3)c2)c1` [Example 1, Dimethyl 5,5′-(N-{[6-amino-5-({3-[(3 methylbenzoyl)amino]phenyl}ethynyl)pyridin-3-yl]carbonyl}sulfonimidoyl)dipentanoate] were 9 nM, less than 1 nM and 25 nM.
Taken in the same sequence, the figures for `COC(=O)CCCCS(=O)(CCCCC(=O)OC)=NC(=O)c1cnc(N)c(C#Cc2cccc(C(=O)Nc3cccc(OC)c3)c2)c1` [Example 11, Dimethyl 5,5′-[N-({6-amino-5-[(3-{[(3-methoxyphenyl)amino]carbonyl}phenyl)ethynyl]pyridin-3-yl}carbonyl)sulfonimidoyl]dipentanoate] were 4 nM, 2 nM and 38 nM.
Taken in the same sequence, the figures for `COC(=O)CCCCS(=O)(CCCCC(=O)OC)=NC(=O)c1cnc(N)c(C#Cc2cccc(C(=O)Nc3ccc(OC)c(Cl)c3)c2)c1` [Example 13, Dimethyl 5,5′-[N-({6-amino-5-[(3-{[(3-chloro-4-methoxyphenyl)amino]carbonyl}phenyl)ethynyl]pyridin-3-yl}carbonyl)sulfonimidoyl]dipentanoate] were 9 nM, 5 nM and 38 nM.
Turning to `COC(=O)CCCCS(=O)(CCCCC(=O)OC)=NC(=O)c1cnc(N)c(C#Cc2cccc(C(=O)Nc3ccc(F)c(Cl)c3)c2)c1` [Example 15, Dimethyl 5,5′-[N-({6-amino-5-[(3-{[(3-chloro-4-fluorophenyl)amino]carbonyl}phenyl)ethynyl]pyridin-3-yl}carbonyl)sulfonimidoyl]dipentanoate], the IC50 against VEGFR2 [1] worked out at 15 nM; at VEGFR2 [2] it was 11 nM; against PDGFRβ it was 68 nM.
In the case of `COC(=O)CCCCS(=O)(CCCCC(=O)OC)=NC(=O)c1cnc(N)c(C#Cc2cccc(C(=O)Nc3cc(C(C)(C)C)on3)c2)c1` [Example 16, Dimethyl 5,5′-[N-({6-amino-5-[(3-{[(5-tert-butylisoxazol-3-yl)amino]carbonyl}phenyl)ethynyl]pyridin-3-yl}carbonyl)sulfonimidoyl]dipentanoate], the IC50 against VEGFR2 [1] came to 28 nM; against PDGFRβ, 20 nM; on VEGFR1, 27 nM.
Turning to `COC(=O)CCCCS(=O)(CCCCC(=O)OC)=NC(=O)c1cnc(N)c(C#Cc2cccc(NC(=O)c3cccc(C(F)(F)F)c3)c2)c1` [Example 5, Dimethyl 5,5′-[N-({6-amino-5-[(3-{[3-(trifluoromethyl)benzoyl]amino}phenyl)ethynyl]pyridin-3-yl}carbonyl)sulfonimidoyl]dipentanoate], the IC50 against VEGFR2 [1] was 10 nM; at VEGFR2 [2], 3 nM; at PDGFRβ it was 10 nM.
Turning to `COC(=O)CCCCS(=O)(CCCCC(=O)OC)=NC(=O)c1cnc(N)c(C#Cc2cccc(NC(=O)c3cccc(SC)c3)c2)c1` [Example 3, Dimethyl 5,5′-[N-({6-amino-5-[(3-{[3-(methylthio)benzoyl]amino}phenyl)ethynyl]pyridin-3-yl}carbonyl)sulfonimidoyl]dipentanoate], the results for the IC50 on VEGFR2 [1] and on VEGFR2 [2] were 5 nM and 4 nM, respectively.
